Several values for one entry are separate records, joined by “and”; a condition that tells them apart may be missing. Identical values can stand only once.
Test: an = ratio of the nth substance listed
Details: 100 kPa, Liquid, Buoyancy - hydrostatic balance, a2 = 1.3

[F][Al]([F])[F] [aluminum fluoride] + [F-].[K+]
Details	mass density
991.02 K	1842 kg/m3
991.03 K	1841 kg/m3
991.17 K	1842 kg/m3
991.49 K	1841 kg/m3
992.13 K	1841 kg/m3
992.28 K	1840 kg/m3
992.47 K	1841 kg/m3
992.66 K	1842 kg/m3
992.84 K	1842 kg/m3
993.1 K	1842 kg/m3
993.15 K	1840 kg/m3
993.49 K	1839 kg/m3
993.5 K	1840 kg/m3
993.57 K	1841 kg/m3
993.62 K	1840 kg/m3
993.79 K	1839 kg/m3
993.81 K	1841 kg/m3
993.83 K	1841 kg/m3
994.35 K	1838 kg/m3
994.37 K	1839 kg/m3
994.52 K	1838 kg/m3
994.62 K	1840 kg/m3
995.21 K	1838 kg/m3
995.25 K	1840 kg/m3
995.47 K	1840 kg/m3
995.64 K	1840 kg/m3
995.66 K	1838 kg/m3
996.05 K	1838 kg/m3
996.18 K	1839 kg/m3
996.21 K	1838 kg/m3
996.6 K	1839 kg/m3
996.7 K	1837 kg/m3
996.81 K	1836 kg/m3
996.88 K	1839 kg/m3
997.13 K	1836 kg/m3
997.4 K	1836 kg/m3
997.41 K	1838 kg/m3
997.63 K	1838 kg/m3
997.84 K	1837 kg/m3
997.92 K	1836 kg/m3
997.99 K	1836 kg/m3
998.24 K	1835 kg/m3
998.66 K	1837 kg/m3
998.67 K	1837 kg/m3
998.83 K	1835 kg/m3
999.09 K	1836 kg/m3
999.14 K	1836 kg/m3
999.24 K	1836 kg/m3
999.27 K	1835 kg/m3
999.3 K	1837 kg/m3
999.38 K	1837 kg/m3
999.39 K	1835 kg/m3
999.51 K	1836 kg/m3
999.7 K	1834 kg/m3
1000.2 K	1834 kg/m3
1000.5 K	1835 kg/m3
1000.8 K	1833 kg/m3
1000.9 K	1834 kg/m3
1001.1 K	1835 kg/m3
1001.3 K	1834 kg/m3
1001.4 K	1833 kg/m3
1001.5 K	1834 kg/m3
1001.6 K	1833 kg/m3
1001.7 K	1834 kg/m3
1002.2 K	1832 kg/m3 and 1833 kg/m3
1002.4 K	1833 kg/m3
1002.7 K	1833 kg/m3
1002.9 K	1832 kg/m3 and 1832 kg/m3
1003.4 K	1832 kg/m3 and 1832 kg/m3
1003.5 K	1831 kg/m3
1003.7 K	1832 kg/m3
1004.2 K	1831 kg/m3
1004.3 K	1831 kg/m3 and 1830 kg/m3
1004.8 K	1831 kg/m3 and 1830 kg/m3
1005 K	1831 kg/m3
1005.1 K	1831 kg/m3 and 1830 kg/m3
1005.6 K	1830 kg/m3
1005.7 K	1830 kg/m3
1006 K	1829 kg/m3
1006.3 K	1830 kg/m3
1006.4 K	1830 kg/m3
1006.5 K	1830 kg/m3 and 1829 kg/m3
1006.9 K	1829 kg/m3 and 1827 kg/m3
1007 K	1829 kg/m3
1007.1 K	1828 kg/m3
1007.3 K	1828 kg/m3
1007.4 K	1828 kg/m3 and 1829 kg/m3
1007.7 K	1827 kg/m3
1007.9 K	1827 kg/m3
1008 K	1827 kg/m3
1008.2 K	1827 kg/m3
1008.3 K	1828 kg/m3
1008.5 K	1827 kg/m3
1008.8 K	1827 kg/m3
1009 K	1827 kg/m3
1009.2 K	1827 kg/m3
1009.4 K	1827 kg/m3
1009.6 K	1826 kg/m3
1009.8 K	1826 kg/m3
1010 K	1825 kg/m3
1010.1 K	1825 kg/m3
1010.3 K	1825 kg/m3
1010.7 K	1825 kg/m3
1010.9 K	1825 kg/m3
1011 K	1825 kg/m3
1011.1 K	1825 kg/m3
1011.2 K	1825 kg/m3
1011.3 K	1824 kg/m3
1011.6 K	1823 kg/m3
1011.7 K	1824 kg/m3
1012 K	1824 kg/m3
1012.2 K	1824 kg/m3
1012.4 K	1824 kg/m3
1012.5 K	1824 kg/m3
1012.6 K	1823 kg/m3
1012.9 K	1824 kg/m3
1013.1 K	1822 kg/m3
1013.4 K	1823 kg/m3
